Test results as given in patent publication US9481676B2, “Azepino[4,5-B]indoles and methods of use” (Medivation Technologies, Inc., priority 2008, dated 2016).

Target: T1, human recombinant adrenergic α2B receptor (Homo sapiens, UniProt P18089)
T1 construct: expressed in transfected cells; host or cells: CHO-K1 cells
T1 sequence (P18089 1-450): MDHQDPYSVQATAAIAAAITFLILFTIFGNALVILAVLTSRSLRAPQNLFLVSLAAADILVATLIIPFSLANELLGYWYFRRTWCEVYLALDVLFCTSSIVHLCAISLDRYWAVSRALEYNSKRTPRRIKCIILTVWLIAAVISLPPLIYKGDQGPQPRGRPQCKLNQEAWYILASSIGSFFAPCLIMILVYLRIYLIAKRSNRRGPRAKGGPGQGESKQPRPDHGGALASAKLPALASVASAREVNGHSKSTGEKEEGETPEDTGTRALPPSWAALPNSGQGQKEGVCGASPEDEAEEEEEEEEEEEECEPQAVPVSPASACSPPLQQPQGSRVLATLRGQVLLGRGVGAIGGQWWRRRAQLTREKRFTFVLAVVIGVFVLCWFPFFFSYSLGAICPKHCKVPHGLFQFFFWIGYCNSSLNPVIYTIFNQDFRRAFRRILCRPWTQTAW
Experiment: Adrenergic alpha2B radioligand binding ([3H]Rauwolscine)
Conditions: compound at 1 μM; read-out: Adrenergic (1 μM) α2B, percent inhibition of specific binding
Description: To evaluate in radioligand binding assays the activity of compounds of the invention, human recombinant adrenergic α2B receptor expressed in Chinese hamster ovary (CHO-K1) cells (Uhlen S et al. Eur J. Pharmacol. 343(1):93, 1998) in a modified Tris-HCl buffer (50 mM Tris-HCl, pH 7.4, 12.5 mM MgCl2, 1 mM EDTA, 0.2% BSA) was used. Compounds of the invention were incubated with 2.5 nM [^3H]Rauwolscine for 60 min. at 25° C. Non-specific binding was estimated in the presence of 10 μM Prozosin. Receptor proteins were filtered and washed, the filters were then counted to determine [^3H]Rauwolscine specifically bound. Compounds were screened at 1 μM or lower, using 1% DMSO as vehicle. Biochemical assay results are presented as the percent inhibition of specific binding in Table 5.

Structure (SMILES)	inhibition at 1 µM [%]
Cc1ccc2c(c1)c1c(n2CC(=O)N2CCCC2)CCN(C)CC1 [Compound No. 45, 2-(2,3,4,5-tetrahydro-3,9-dimethylazepino[4,5-b]indol-6(1H)-yl)-1-(pyrrolidin-1-yl)ethanone]	9
Cc1ccc2c(c1)c1c(n2C(=O)Cc2ccc(F)cc2)CCN(C)CC1 [Compound No. 285, 1-(3,9-dimethyl-2,3,4,5-tetrahydroazepino[4,5-b]indol-6(1H)-yl)-2-(4-fluorophenyl) ethanone]	75
Cc1ccc2c(c1)c1c(n2CCc2ccc(C(F)(F)F)nc2)CCN(C)CC1 [Compound No. 20, 6-(2-(6-(trifluoromethyl)pyridin-3-yl)ethyl)-1,2,3,4,5,6-hexahydro-3,9-dimethylazepino[4,5-b]indole]	88
Cc1ccc2c(c1)c1c(n2CCc2ccc(Cl)cc2)CCN(C)CC1 [Compound No. 28, 6-(4-chlorophenethyl)-1,2,3,4,5,6-hexahydro-3,9-dimethylazepino[4,5-b]indole]	103
COc1ccc(C(O)Cn2c3c(c4cc(C)ccc42)CCN(C)CC3)cc1 (stereo not shown) [Compound No. 48, 2-(2,3,4,5-tetrahydro-3,9-dimethylazepino[4,5-b]indol-6(1H)-yl)-1-(4-methoxyphenyl) ethanol]	103
CN1CCc2c(n(CC(=O)N3CCOCC3)c3ccc(Cl)cc23)CC1 [Compound No. 60, 2-(9-chloro-2,3,4,5-tetrahydro-3-methylazepino[4,5-b]indol-6(1H)-yl)-1-morpholinoethanone]	53
Cc1ccc2c(c1)c1c(n2CC(=O)N2CCOCC2)CCN(C)CC1 [Compound No. 38, 2-(2,3,4,5-tetrahydro-3,9-dimethylazepino[4,5-b]indol-6(1H)-yl)-1-morpholinoethanone]	83
Cc1ccc2c(c1)c1c(n2CC(O)c2cccnc2)CCN(C)CC1 (stereo not shown) [Compound No. 19, 2-(2,3,4,5-tetrahydro-3,9-dimethylazepino[4,5-b]indol-6(1H)-yl)-1-(pyridin-3-yl)ethanol]	90
Cc1ccc2c(c1)c1c(n2CCc2ccccn2)CCN(C)CC1 [Compound No. 9, 1,2,3,4,5,6-hexahydro-3,9-dimethyl-6-(2-(pyridin-2-yl)ethyl)azepino[4,5-b]indole]	90
CN1CCc2c(n(CC(=O)N3CCCC3)c3ccc(Cl)cc23)CC1 [Compound No. 53, 2-(9-chloro-2,3,4,5-tetrahydro-3-methylazepino[4,5-b]indol-6(1H)-yl)-1-(pyrrolidin-1-yl)ethanone]	3
Cc1ccc2c(c1)c1c(n2/C=C/c2ccc(F)cc2)CCN(C)CC1 [Compound No. 39, 6-(4-fluorostyryl)-1,2,3,4,5,6-hexahydro-3,9-dimethylazepino[4,5-b]indole]	105
Cc1ccc2c(c1)c1c(n2/C=C/c2ccc(Cl)cc2)CCN(C)CC1 [Compound No. 235, (E)-6-(4-chlorostyryl)-3,9-dimethyl-1,2,3,4,5,6-hexahydroazepino[4,5-b]indole]	98
COc1ccc(C(O)Cn2c3c(c4cc(C)ccc42)CCN(C)CC3)c(F)c1 (stereo not shown) [Compound No. 50, 1-(2-fluoro-4-methoxyphenyl)-2-(2,3,4,5-tetrahydro-3,9-dimethylazepino[4,5-b]indol-6(1H)-yl)ethanol]	102
CN1CCc2c(n(CC(=O)Nc3ccc(F)cc3)c3ccc(Cl)cc23)CC1 [Compound No. 37, 2-(9-chloro-2,3,4,5-tetrahydro-3-methylazepino[4,5-b]indol-6(1H)-yl)-N-(4-fluorophenyl) acetamide]	70
C=C(Cn1c2c(c3cc(Cl)ccc31)CCN(C)CC2)c1ccc(Cl)cc1 [Compound No. 35, 9-chloro-6-(2-(4-chlorophenyl)allyl)-3-methyl-1,2,3,4,5,6-hexahydroazepino[4,5-b]indole]	112
Cc1ccc2c(c1)c1c(n2CC(=O)NC2CCCCC2)CCN(C)CC1 [Compound No. 22, N-cyclohexyl-2-(2,3,4,5-tetrahydro-3,9-dimethylazepino[4,5-b]indol-6(1H)-yl)acetamide]	-7
CN1CCc2c(n(CC(=O)Nc3ccccc3)c3ccc(Cl)cc23)CC1 [Compound No. 73, 2-(9-chloro-2,3,4,5-tetrahydro-3-methylazepino[4,5-b]indol-6(1H)-yl)-N-phenylacetamide]	21
CN1CCc2c(n(C#Cc3ccc(Cl)cc3)c3ccc(Cl)cc23)CC1 [Compound No. 282, 9-chloro-6-((4-chlorophenyl)ethynyl)-3-methyl-1,2,3,4,5,6-hexahydroazepino[4,5-b]indole]	102
Cc1ccc2c(c1)c1c(n2CCc2ccccc2Cl)CCN(C)CC1 [Compound No. 69, 6-(2-chlorophenethyl)-1,2,3,4,5,6-hexahydro-3,9-dimethylazepino[4,5-b]indole]	-4
COc1ccc(/C=C/n2c3c(c4cc(C)ccc42)CCN(C)CC3)c(F)c1 [Compound No. 230, (E)-6-(2-fluoro-4-methoxystyryl)-3,9-dimethyl-1,2,3,4,5,6-hexahydroazepino[4,5-b]indole]	99
Cc1ccc2c(c1)c1c(n2CCc2ccncc2)CCN(C)CC1 [Compound No. 6, 1,2,3,4,5,6-hexahydro-3,9-dimethyl-6-(2-(pyridin-4-yl)ethyl)azepino[4,5-b]indole]	106
Cc1ccc2c(c1)c1c(n2CCc2ccc(C(=O)O)nc2)CCN(C)CC1 [Compound No. 11, 5-(2-(2,3,4,5-tetrahydro-3,9-dimethylazepino[4,5-b]indol-6(1H)-yl)ethyl)pyridine-2-carboxylic acid]	3
Cc1ccc2c(c1)c1c(n2CC(=O)N(C)C2CCCCC2)CCN(C)CC1 [Compound No. 232, N-cyclohexyl-2-(3,9-dimethyl-2,3,4,5-tetrahydroazepino[4,5-b]indol-6(1H)-yl)-N-methylacetamide]	39
CN1CCc2c(n(CC(C)(O)c3ccc(F)cc3)c3ccc(Cl)cc23)CC1 (stereo not shown) [Compound No. 13, 1-(9-chloro-2,3,4,5-tetrahydro-3-methylazepino[4,5-b]indol-6(1H)-yl)-2-(4-fluorophenyl)propan-2-ol]	105
COc1ccc(C(O)Cn2c3c(c4cc(Cl)ccc42)CCN(C)CC3)c(F)c1 (stereo not shown) [Compound No. 49, 2-(9-chloro-2,3,4,5-tetrahydro-3-methylazepino[4,5-b]indol-6(1H)-yl)-1-(2-fluoro-4-methoxyphenyl) ethanol]	106
Cc1ccc2c(c1)c1c(n2CC(=O)N2CCCCC2)CCN(C)CC1 [Compound No. 32, 2-(2,3,4,5-tetrahydro-3,9-dimethylazepino[4,5-b]indol-6(1H)-yl)-1-(piperidin-1-yl)ethanone]	22
CN1CCc2c(n(CC(O)c3ccc(F)cc3)c3ccc(Cl)cc23)CC1 (stereo not shown) [Compound No. 51, 2-(9-chloro-2,3,4,5-tetrahydro-3-methylazepino[4,5-b]indol-6(1H)-yl)-1-(4-fluorophenyl) ethanol]	103
Cc1ccc2c(c1)c1c(n2CC(O)c2ccncc2)CCN(C)CC1 (stereo not shown) [Compound No. 43, 2-(2,3,4,5-tetrahydro-3,9-dimethylazepino[4,5-b]indol-6(1H)-yl)-1-(pyridin-4-yl)ethanol]	107
